For 13 compounds, IC50, fold change (FC) and Activity results are on record in ChEMBL document CHEMBL4417623, “Methods and compositions for inhibiting rho/mrtf-mediated diseases and conditions” (2015).

The nature of test [1]: Inhibition of Rho/MRTF/SRF mediated signaling (unknown origin) assessed as reduction in MRTF/SRF-regulated gene transcription by SRE-luciferase expression based assay. Set-up: species or system Homo sapiens.
The species entered for test [2] is Homo sapiens. The test is described as follows: Inhibition of Rho/MRTF/SRF mediated signaling in human dermal fibroblasts assessed as suppression of myofibroblast activation by measuring reduction in TGFbeta-induced alpha-SMA expression incubated for 3 days relative to perfenidone.
The test system of test [3] is Mus musculus. In words: Suppression of fibrosis in C57bl/6 mouse model of bleomycin-induced dermal fibrosis at 100 mg/kg, bid dosed via oral gavage. The format is functional, organism-based.
For test [4], the species on record is Mus musculus. In words: Inhibition of Rho/MRTF/SRF mediated signaling in mouse NIH/3T3 cells assessed as inhibition of fibrosis markers by measuring reduction in LPA-induced ACTA2 mRNA expression by qRT-PCR assay relative to perfenidone. The format is cell-based. On the technique in general: In qPCR the cycle at which signal appears reflects the starting amount.

The species entered for test [5] is Mus musculus. In words: Inhibition of Rho/MRTF/SRF mediated signaling in mouse NIH/3T3 cells assessed as inhibition of fibrosis markers by measuring reduction in LPA-induced COL1A2-hn mRNA expression by qRT-PCR assay relative to perfenidone. The test is classed as cell-based.
Test [6] in a line: Inhibition of Rho/MRTF/SRF mediated signaling (unknown origin) assessed as reduction in MRTF/SRF-regulated gene transcription by SRE-luciferase expression based assay relative to control. Also noted: species or system Homo sapiens.

The source made the active and inactive calls. The calls are words filed in the database; no cut-off is given here.

What is called IC50 is the midpoint of a concentration-inhibition curve. Turning to `Cc1ccc(-c2nnc(SCCC(=O)O)o2)cc1`, the concentration for half-maximal inhibition (IC50) in test [1] turned out to be 34 nM. Still for that read-out and setting: under `Cc1cccc(-c2nnc(SCCC(=O)O)o2)c1` stands 180 nM; under `CCOC(=O)CCSc1nnc(-c2ccc(Cl)cc2Cl)o1`, 2.6 nM. `O=C(Nc1ccc(Cl)cc1)C1CCCN(C(=O)c2cccc(-c3ccco3)c2)C1` (stereo unspecified): the fold change (FC) in test [2], in test [4] and in test [5] was 100 throughout. Further, the outcome in test [3] was Active. With `COc1ccc(-c2nnc(SCCC(=O)O)o2)cc1`, in test [1], the IC50 is 160 nM. Still for that read-out and setting: under `Cc1ccc(-c2nnc(SCCC(=O)O)o2)c(Cl)c1` stands 1.5 nM.

Consider `O=C(O)CCSc1nnc(-c2ccccc2)o1`, for which the IC50 in test [1] was determined as 3500 nM.

Regarding `O=C(O)CCSc1nnc(-c2ccc(Cl)cc2)o1`, in test [1], the IC50 was 340 nM. Regarding `CC(ONC(=O)c1cc(C(F)(F)F)cc(C(F)(F)F)c1)C(=O)Nc1ccc(Cl)cc1` (stereo unspecified), the IC50 in test [6] came out at 1000 nM.

`COc1cccc(-c2nnc(SCCC(=O)O)o2)c1`: the 50% inhibitory concentration (IC50) in test [1] is 3600 nM.

As for `O=C(O)CCCSc1nnc(-c2ccc(Cl)cc2Cl)o1`, in test [1], the IC50 is 1.8 nM. The same measure, in the same setting: under `O=C(O)CCSc1nnc(-c2cccc(Cl)c2)o1` stands 1500 nM; under `COc1ccc(-c2nnc(SCCC(=O)O)o2)c(Cl)c1`, 2.6 nM.
